Test results: patent publication US20100048657A1, “CONTROL OF MALIGNANT CELLS PROLIFERATION THROUGH THE INHIBITION OF CASEIN KINASE 2” (CLEVELAND STATE UNIVERSITY, priority 2006, published 2010)

Key:
MEG-01 cells [1] = experiment: Viability (proliferation) assay, Trypan blue exclusion; settings: for proliferation rate / cell number of MEG-01 cells: 4 days of treatment
From the text: In order to check the effect of CK2 inhibitors, the treatments length went up to 4, 5 days without splitting.
Cells were counted using a Neubauer hemacytometer. Trypan blue dye was used according to the manufacturer (Sigma-Aldrich, cat. # T8154).
Cell number (as cells/ml) was estimated using the formula [(total count/0.1)/total surface area counted]*(dilution factor), where 0.1 is the chamber depth, considering the appropriate area counted, half dilution for Trypan blue was considered in calculations. Countings were done as quadruplicates every 24 hours.
Quadruplicates values were used for each sample. Experiments were repeated at least 4 times, in order to see if the trend is correct and reproducible.

MEG-01 cells [2] = experiment: Apoptosis assay by flow cytometry with AnnexinV-FITC and PI; assay type: cell-based, human; settings: for early apoptotic cells (FL1H+, FL3H−) versus control untreated (DMSO): 72 hours; for early apoptotic cells (FL1H+, FL3H−) versus control untreated (DMSO) / total apoptotic cells (late plus early) versus control untreated (DMSO): p<0.01; for cytotoxicity: MEG-01 cells
Method: For induction of typical apoptosis, cells were cultured with 1 μM Staurosporine (Sigma-Aldrich, cat. # S6942) for 6 hours as recommended in the protocol from the provider. Next the Staurosporine treated cells were stained as follows: (1) with PI, (2) with AnnexinV-FITC and (3) both PI and AnnexinV-FITC in order to have the brightest controls for compensation and proper collection of the flow cytometry data. Cell necrosis was induced by heat shock (65° C. for 30 minutes). Controls for necrosis were stained in the same way as for the Staurosporine treated cells.
In order to establish the effect of the treatments on the apoptosis levels, the non-treated cells (as well as the mock control DMSO) were considered as a control, stained with PI and AnnexinV-FITC and the unstained cells, grown for the same length of treatment. The unstained control signal was subtracted by gating from the stained control and the rest of stained samples, to get only the positive stained cells signal. The stained control, both PI and AnnexinV-FITC labeled, was then used as the reference in establishing the level of apoptosis induced by the treatments.
Samples contained three cell populations of different size and shape and data was collected on logarithmic modes. AnnexinV-FITC corresponds to FL1H channel, and PI to FL3H or FL2H channels. When needed, compensation was done to remove any spillover between the channels. In addition, proper gating was done to characterize each cell population. The population of cells high on FSC and SSC, identified as large, non-granulated particles corresponds to MEG-01 cells. This population is involved in the proplatelets formation and terminal phase of megakaryocytopoiesis and in thrombocytopoiesis. MEG-01 gate is the one of interest in estimating the apoptosis level induced by the treatments.
The Apoptosis AnnexinV-FITC and PI kit from BD Biosciences, CA, USA was used. 105-106 cells were stained with 50 μg/ml propidium iodide (PI) and with 0.5 μg/ml FITC-labeled Annexin V using the staining protocol provided by the supplier. Briefly, cells were counted using a Neubauer hemacytometer, then washed and resuspended in the appropriate amount of AnnexinV-binding buffer 1× (provided in the kit), in order to have the most […] in 100 μl. Then it was used further, as the total reaction volume 100 μl (containing 10^6 cells) to which PI and AnnexinV-FITC was added. Incubation was done for 15 minutes in dark at room temperature. Samples were then analyzed immediately by flow cytometry.
With reference to FIGS. 5-9, apoptosis flow cytometry (AnnexinV-FITC corresponding to FL1H and PI corresponding to FL3H) is depicted. Analyzed and graphed values correspond to frequencies of the parent obtained with FlowJo software version 6.2, after quadrant gating. […] In FIG. 5, apoptotic cells, percentages (FL1H+, FL3H−), after 24 hours of treatment with CK2α inhibitors are depicted. Left bar represents Control untreated (DMSO), middle bar represents DMAT 20 μM treatment and right bar represents TBB 50 μM treatment. The MEG-01 cells were treated for a period of 24 hours. […] Left column represents the Control untreated (DMSO), middle bar represents DMAT 20 μM treatment and right bar represents TBB 50 μM treatment. The MEG-01 cells were treated for a period of 72 hours. […] Left bar represents the Control untreated (DMSO), middle bar represents DMAT 20 μM treatment and right bar represents TBB 50 μM treatment. The MEG-01 cells were treated for a period of 96 hours. […] FIG. 8 illustrates control untreated (DMSO) stained for both Annexin V-FITC and PI, after 24 hours.

MEG-01 cells [3] = experiment: Thrombocytopoiesis / proplatelet formation by light, DAPI fluorescence and SEM microscopy; assay type: cell-based, human; settings: for thrombocytopoiesis: MEG-01 cells
Method: For observing the cells with light microscopy and to be able to provide a matrix for them to adhere, Fibronectin (FN), was used at 5 μg/cm^2 and incubated at 37° C. for 1 h, as a coat for the culture dish (6 well plates usually), as recommended by the provider (BD Biosciences, Bedford, Mass., USA) (Jiang et al., 2002).
Cell pictures were routinely taken in the laboratory of using an Olympus CK40 microscope, and the NIH Image software. High quality pictures and live imaging were taken at Cleveland Clinic Foundation Imaging Core.
DAPI staining of cultured MEG-01 cells was done with fresh cells, for live imaging.
Different concentrations of inhibitors were used, and both floating as well as fibronectin bound cells were examined. Proplatelets producing cells were observed as early as from the second day (after 24 hours), but in the third and forth days proplatelets formation was enhanced. […] When such a cell was identified, efforts were taken to focus on it and pictures were taken every 10 seconds for one day.
Cell preparation and pictures were done at the Microscopy Core Facility Cleveland Clinic. Cells were grown for 4 days with DMAT 10 μM and then collected by differential centrifugation. Cells were fixed in glutaraldehyde buffer and then further processed at the Core. The clot was prepared with platelets collected from MEG-01 cultures treated with DMAT 10 μM. Human thrombin 0.5 U/ml for 15 minutes was used to activate them. Then the clot was fixed in suspension.
Referring to FIGS. 10-15, DAPI staining of live MEG-01 cells is illustrated. Apoptotic morphology of MEG-01 cells. In FIG. 10, proplatelets formation in suspension, result of DMAT treatment (10 μM) is shown. FIG. 11 depicts proplatelets formation on Fibronectin, result of DMAT treatment (10 μM). […] This image represents the DAPI staining of cells from FIG. 11. […] FIG. 14 also illustrates phase contrast micrograph of live MEG-01 cells untreated in the 3rd to the 4th day (DMSO), 20×. FIG. 15 illustrates phase contrast micrograph of live MEG-01 cells treated with DMAT 10 μM in the 3rd to the 4th day, 20×. To summarize, FIGS. 10-15 show chromatin condensation, blebbing, cytoplasmic and nuclear fragmentation, as well as polyploidy (increase in the size of the nucleus) of MEG-01 cells following DMAT treatment.

[4] = 50 μM, fourth and fifth days (TBB p<0.01, DMAT p<0.005)

| SMILES | proliferation (viability) versus Control untreated (DMSO) (MEG-01 cells [1]; 25 μM, fourth and fifth days, p<0.01) | proliferation rate / cell number of MEG-01 cells (MEG-01 cells [1]; 50 μM) | proliferation (viability) versus Control untreated (DMSO) (MEG-01 cells [1]; [4]) | apoptosis (MEG-01 cells [2]; 10 μM, 24 hours) | apoptosis versus non-treated control (MEG-01 cells [2]; 20 μM, 24 hours) | early apoptotic cells (FL1H+, FL3H−) versus control untreated (DMSO) (MEG-01 cells [2]; 20 μM) | total apoptotic cells (late plus early) versus control untreated (DMSO) (MEG-01 cells [2]; 20 μM, 96 hours) | apoptosis compared with TBB (MEG-01 cells [2]; DMAT 20 μM versus TBB 50 μM, 96 hours) | cytotoxicity (MEG-01 cells [2]) | cell surface phenotype by SEM (MEG-01 cells [3]; 10 μM, 3 to 4 days) | maturation and proplatelet formation (MEG-01 cells [3]; 10 μM, as early as from the second day, in suspension and on fibronectin) | thrombocytopoiesis (MEG-01 cells [3]) | proliferation rate / cell number of MEG-01 cells (MEG-01 cells [1]; 100 μM) | proliferation (viability) versus Control untreated (DMSO) (MEG-01 cells [1]; 100 μM, fourth and fifth days, p<0.005) | concentration at which the inhibitor had effect (MEG-01 cells [1]; proliferation arrest and induced apoptosis, TBB concentration required for the same effect as DMAT) [µM] | apoptosis versus non-treated control (MEG-01 cells [2]; 50 μM, 24 hours, p<0.05) | early apoptotic cells (FL1H+, FL3H−) versus control untreated (DMSO) (MEG-01 cells [2]; 50 μM) | total apoptotic cells (late plus early) versus control untreated (DMSO) (MEG-01 cells [2]; 50 μM, 96 hours) |
| --- | --- | --- | --- | --- | --- | --- | --- | --- | --- | --- | --- | --- | --- | --- | --- | --- | --- | --- |
| CN(C)c1nc2c(Br)c(Br)c(Br)c(Br)c2[nH]1 [DMAT, 2-dimethylamino-4,5,6,7-tetrabromo-1H-benzimidazole] | very significant statistical differences | maintained a steady number of cells for the 4 days of treatment and induced extremely significant reduction in the proliferation rate | very significant statistical differences | induced apoptosis | extremely significant apoptosis | significant apoptosis after 72 hours | significant apoptosis after 96 hours | induces more apoptosis at a lower concentration than the less specific inhibitor (TBB) | without being cytotoxic | Pseudopodia and proplatelets formation, as well as blebbing can be observed | induced MEG-01 cells to mature and form proplatelets extensions | induced thrombocytopoiesis |  |  |  |  |  |  |
| Brc1c(Br)c(Br)c2[nH]nnc2c1Br [TBB, 4,5,6,7-tetrabromobenzotriazole] |  |  | very significant statistical differences |  |  |  |  |  | without being cytotoxic |  |  | induced thrombocytopoiesis | maintained a steady number of cells for the 4 days of treatment and induced extremely significant reduction in the proliferation rate | very significant statistical differences | 50 | significant apoptosis | significant apoptosis after 72 hours | significant apoptosis after 96 hours |
